Test results as given in patent US20230127965A1, “METHODS FOR TREATING, AMELIORATING, OR PREVENTING VIRAL INFECTIONS” (Thomas Jefferson University, priority 2020, published 2023).
Entries after “also recorded” stand apart in the source; their conditions may differ.

Assays:
Assay type in all cases: cell-based
SARS-CoV-2 = tested on: SARS-CoV-2
androgen receptor (AR) = tested on: androgen receptor (AR)
Dengue virus = Dengue virus infection of U2OS cells, qPCR; conditions: 10 μM, treated 2 hours before infection, MOI of 1, ~16-18 hours (FIG. 6)
Zika virus = Zika virus infection of U2OS cells, qPCR; conditions: 10 μM, treated 2 hours before infection, MOI of 1, ~16-18 hours (FIG. 7)
Powassan virus = tested on: Powassan virus

| SMILES | effect on SARS-CoV-2 infection (in words) (SARS-CoV-2) | DHT induced AR transcriptional activity (androgen receptor (AR)) | blocked SARS-CoV-2 infection (fold) (SARS-CoV-2) | Dengue virus infection (fold change, qPCR) (Dengue virus) | Zika virus infection (fold change, qPCR) (Zika virus) | Powassan virus infection (fold change, qPCR) (Powassan virus) |
| --- | --- | --- | --- | --- | --- | --- |
| Cc1cc(OCCN2CCOCC2)nn1-c1ccc2ccccc2c1 [Compound S1RA, 4-[2-[[5-methyl-1-(2-naphthalenyl)-1H-pyrazol-3-yl]oxy]ethyl]morpholine] | did not block infection; also recorded: does not block infection | – | – | – | – | – |
| COc1ccc(CCN2CCN(CCCc3ccccc3)CC2)cc1OC [SA4503, 1-(3,4-dimethoxyphenethyl)-4-(3-phenylpropyl) piperazine] | did not block infection | – | – | – | – | – |
| O=C(CCCN1CCC(O)(c2ccc(Cl)cc2)CC1)c1ccc(F)cc1 [Haloperidol, 4-[4-(4-chlorophenyl)-4-hydroxypiperidin-1-yl]-1-(4-fluorophenyl)butan-1-one] | clear but modest antiviral effect | – | – | – | – | – |
| N=C(NCCCOc1ccc(F)cc1)Nc1ccc(Cl)cc1 [CT189] | inhibit SARS-CoV-2 infection | inhibition | 1,000 fold | inhibit | inhibit | inhibit |
| N=C(Nc1ccc(I)cc1)NC1C2CC3CC(C2)CC1C3 (stereo not shown) [IPAG] | inhibit SARS-CoV-2 infection | inhibition | 1,000 fold | – | – | – |
| O=C(OCCN1CCOCC1)C1(c2ccccc2)CCCCC1 [PRE084, 2-morpholin-4-ylethyl 1-phenylcyclohexane-1-carboxylate] | did not block infection | – | – | – | – | – |
